ChEMBL document CHEMBL3351529, “Triazolopyridyl ketones as a novel class of antileishmanial agents. DNA binding and BSA interaction” (Bioorg Med Chem, 2014)
Activity calls are given as the source filed them. No cut-off for these calls is given here.

Columns and labels:
[1] = Selectivity index, ratio of CC50 for mouse J774 cells to IC50 for promastigote form of Leishmania infantum MCAN/ES/96/BCN150; assay type: functional
Leishmania braziliensis = test: Antileishmanial activity against promastigote form of Leishmania braziliensis 2903 after 48 hrs by resazurin fluorescence assay; assay type: functional, organism-based; conditions: Leishmania braziliensis, 2903, 48 h
Leishmania infantum [2] = test: Antileishmanial activity against promastigote form of Leishmania infantum MCAN/ES/96/BCN150 after 48 hrs by resazurin fluorescence assay; assay type: functional, organism-based
[3] = Selectivity index, ratio of CC50 for mouse J774 cells to IC50 for amastigote form of Leishmania amazonensis MHOM/Br/79/Maria infected in mouse J774 cells; assay type: functional
[4] = Selectivity index, ratio of CC50 for mouse J774 cells to IC50 for promastigote form of Leishmania amazonensis MHOM/Br/79/Maria; assay type: functional
Leishmania guyanensis = test: Antileishmanial activity against promastigote form of Leishmania guyanensis 141/93 after 48 hrs by resazurin fluorescence assay; assay type: functional, organism-based; conditions: 141/93, 48 h
[5] = Cytotoxicity against mouse J774 cells assessed as reduction in cell viability after 24 hrs by resazurin fluorescence assay; assay type: cell-based
[6] = Selectivity index, ratio of CC50 for mouse J774 cells to IC50 for promastigote form of Leishmania guyanensis 141/93; assay type: functional
Leishmania amazonensis [7] = test: Antileishmanial activity against promastigote form of Leishmania amazonensis MHOM/Br/79/Maria after 48 hrs by resazurin fluorescence assay; assay type: functional, organism-based
[8] = Selectivity index, ratio of CC50 for mouse J774 cells to IC50 for amastigote form of Leishmania infantum MCAN/ES/96/BCN150 infected in mouse J774 cells; assay type: functional
[9] = Selectivity index, ratio of CC50 for mouse J774 cells to IC50 for promastigote form of Leishmania braziliensis 2903; assay type: functional
Mus musculus [10] = test: Toxicity in BALB/c mouse assessed as gross weight loss at 5 mg/kg, ip qd for 5 consecutive days; assay type: organism-based; design: dose 5 mg/kg, route intraperitoneal; conditions: in vivo
Albumin [11] = molecular target: T1, Albumin (Bos taurus, UniProt P02769); test: Binding affinity to bovine serum albumin after 10 mins by fluorimetric titration method; assay type: ADME; conditions: cattle, isolated protein
T1 sequence (P02769 whole entry): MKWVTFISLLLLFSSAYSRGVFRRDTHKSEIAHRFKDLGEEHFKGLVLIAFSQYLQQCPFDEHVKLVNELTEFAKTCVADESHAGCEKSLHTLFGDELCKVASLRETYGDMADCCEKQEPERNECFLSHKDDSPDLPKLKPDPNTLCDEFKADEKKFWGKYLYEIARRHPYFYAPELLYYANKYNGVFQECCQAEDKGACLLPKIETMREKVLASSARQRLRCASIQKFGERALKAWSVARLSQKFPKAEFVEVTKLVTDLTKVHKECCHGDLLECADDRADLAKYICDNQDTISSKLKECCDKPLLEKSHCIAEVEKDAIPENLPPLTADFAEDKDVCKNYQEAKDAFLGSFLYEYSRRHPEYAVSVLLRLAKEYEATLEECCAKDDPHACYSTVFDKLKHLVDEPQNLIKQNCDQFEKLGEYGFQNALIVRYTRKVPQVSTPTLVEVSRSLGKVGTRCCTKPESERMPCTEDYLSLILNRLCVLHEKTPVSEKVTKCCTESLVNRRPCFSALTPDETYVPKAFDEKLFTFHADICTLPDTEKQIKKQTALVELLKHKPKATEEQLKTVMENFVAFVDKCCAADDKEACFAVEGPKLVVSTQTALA

Leishmania amazonensis [12] = test: Antileishmanial activity against amastigote form of Leishmania amazonensis MHOM/Br/79/Maria infected in mouse J774 cells assessed as reduction in intracellular amastigotes compound treated for 48 hrs followed by 3 days incubation for transformation by resazurin fluorescence assay; assay type: functional, organism-based
Bos taurus = organism: Bos taurus; test: Effect on calf thymus DNA viscosity at 1 to 10 uM
Leishmania infantum [13] = test: Antileishmancidal activity against amastigote form of Leishmania infantum MCAN/ES/96/BCN150 infected in BALB/c mouse assessed as reduction of parasite burden in liver at 5 mg/kg, ip qd for 5 consecutive days starting 21 days post infection measured after 7 days relative to untreated control; assay type: functional; design: scale not given: the % may be the effect or the level left
Albumin [14] = molecular target: T1, Albumin; test: Competitive binding affinity to bovine serum albumin site 2 assessed as quenching constant after 10 mins by fluorimetric titration method in presence of ibuprofen; assay type: ADME; conditions: cattle, isolated protein
Leishmania infantum [15] = test: Antileishmanial activity against amastigote form of Leishmania infantum MCAN/ES/96/BCN150 infected in mouse J774 cells assessed as reduction in intracellular amastigotes compound treated for 48 hrs followed by 3 days incubation for transformation by resazurin fluorescence assay; assay type: functional, organism-based; conditions: MCAN/ES/96/BCN150, J774
Calf thymus DNA [16] = test: Binding affinity to calf thymus DNA by UV-visible titration method; assay type: nucleic-acid assay; conditions: Bos taurus
Calf thymus DNA [17] = test: Binding affinity to calf thymus DNA assessed as hypochromic effect at DNA-compound ratio of 3 by UV-visible titration method; assay type: nucleic-acid assay; conditions: Bos taurus
Leishmania infantum [18] = test: Antileishmancidal activity against amastigote form of Leishmania infantum MCAN/ES/96/BCN150 infected in BALB/c mouse assessed as reduction of parasite burden in spleen at 5 mg/kg, ip qd for 5 consecutive days starting 21 days post infection measured after 7 days relative to untreated control; assay type: functional; design: scale not given: the % may be the effect or the level left; conditions: route intraperitoneal
Mus musculus [19] = test: Toxicity in BALB/c mouse assessed as hair loss at 5 mg/kg, ip qd for 5 consecutive days; assay type: organism-based; design: dose 5 mg/kg, route intraperitoneal; conditions: in vivo
Albumin [20] = molecular target: T1, Albumin; test: Binding affinity to bovine serum albumin assessed as quenching constant after 10 mins by Stern-Volmer plot method; assay type: ADME; conditions: cattle, isolated protein
Albumin [21] = molecular target: T1, Albumin; test: Competitive binding affinity to bovine serum albumin site 1 assessed as quenching constant after 10 mins by fluorimetric titration method in presence of warfarin; assay type: ADME; conditions: cattle, isolated protein
Calf thymus DNA [22] = test: Binding affinity to calf thymus DNA at 10 uM by UV-visible titration method; assay type: nucleic-acid assay; conditions: Bos taurus
[23] = Leishmania infantum, MCAN/ES/96/BCN150, 48 h, read-out: IC50
[24] = Leishmania amazonensis, MHOM/Br/79/Maria, 48 h, read-out: IC50

Row | Structure (SMILES) | Ratio CC50/IC50 [1] | IC50 (Leishmania braziliensis) [µM] | IC50 (Leishmania infantum [2]; [23]) [µM] | Ratio CC50/IC50 [3] | Ratio CC50/IC50 [4] | IC50 (Leishmania guyanensis) [µM] | CC50 at 24 h [5] [µM] | Ratio CC50/IC50 [6] | IC50 (Leishmania amazonensis [7]; [24]) [µM] | Ratio CC50/IC50 [8] | Ratio CC50/IC50 [9] | Kb (Albumin [11]) [×10⁴ /M] | Kq (Albumin [11]) [×10¹³ /M/sec] | Activity (Bos taurus) | Kb (Albumin [14]) [×10³ /M] | IC50 (Leishmania infantum [15]) [µM] | Kb (Calf thymus DNA [16]) [×10⁵ /M] | Activity (Calf thymus DNA [17]) [%] | Activity (Leishmania infantum [18]) [%] | KSV (Albumin [20]) [×10⁵ /M] | further results
1 | CCCCCCCCCCCCCCCCOP(=O)([O-])OCC[N+](C)(C)C [MILTEFOSINE] | 7.7 | 27.1 | 21.3 | 6.5 | 5.8 | 53.6 | 164 | 3.1 | 28.3 | 5.7 | 6 | – | – | – | – | – | – | – | – | – | –
2 | O=C(c1cccc2c(-c3ccccc3)nnn12)c1cccc2c(-c3ccccc3)nnn12 | – | 56.8 | – | – | – | 53.8 | ≥ 300 | >4.5 | – | – | >2.5 | – | – | – | – | – | – | – | – | – | IC50 (Leishmania infantum [2]): Not Active; IC50 (Leishmania amazonensis [7]): Not Active
3 | O=C(c1ccccn1)c1cccc2c(-c3ccccc3)nnn12 | >1.9 | 169 | 173 | – | >2.8 | 126 | ≥ 300 | >2.4 | 106 | – | >1.8 | – | – | – | – | – | – | – | – | – | –
4 | O=C(c1cccc(-c2nnn3ccccc23)n1)c1cccc(-c2nnn3ccccc23)n1 | >6.3 | 26.8 | 47.3 | >2.6 | >3.3 | 29.3 | ≥ 300 | >10.2 | 89.6 | >15.3 | >11.2 | 2.5 | 2.6 | inactive | 5.3 | 19.5 | 1.14 | 60 | 99.3 | 2.6 | Activity (Mus musculus [10]): Non-toxic; IC50 (Leishmania amazonensis [12]; Leishmania amazonensis, MHOM/Br/79/Maria, J774, read-out: IC50): 115 µM; Activity (Leishmania infantum [13]; route intraperitoneal): 92.8%; Activity (Mus musculus [19]): Non-toxic; Kb (Albumin [21]): 9.3 ×10³ /M
5 | O=C(c1ccccn1)c1cccc(-c2nnn3ccccc23)n1 | >1.3 | 190 | 231 | – | >2.8 | 109 | ≥ 300 | >2.8 | 108 | – | >1.6 | – | – | – | – | – | – | – | – | – | Activity (Calf thymus DNA [22]): inactive
6 | O=C(c1cccc(C(=O)c2cccc(-c3nnn4ccccc34)n2)n1)c1cccc(-c2nnn3ccccc23)n1 | >3 | 59.4 | 99.8 | – | >5.6 | 28.7 | ≥ 300 | >10.4 | 53.7 | >7.9 | >5.1 | 1.9 | 2.4 | inactive | 3.8 | 38 | 3.26 | 60 | 78.2 | 2.4 | IC50 (Leishmania amazonensis [12]; j774): Not Active; Activity (Leishmania infantum [13]): inactive; Kb (Albumin [21]): 8.2 ×10³ /M
